According to paper PMC11939078, “TAK-994 mechanistic investigation into drug-induced liver injury” (Toxicological Sciences, 2025):
pIC50: −log10 of the molar value. Where two headings read alike, the source gives them in different places.

Assays:
patients with narcolepsy [1] = assay: Phase II studies TAK-994-1501 and TAK-994-1504
human BSEP = human BSEP (Homo sapiens, UniProt O95342); assay: BSEP inhibition, [3H]TCA uptake into membrane vesicles; type: biochemical; details: [3H]TCA transport
Procedure: (§1) Covalent binding of TAK-994 was assessed by incubating [^14C]TAK-994 with human hepatocytes. The CVB level was determined by relating the total amount of radioactivity (pmol equivalent) to the protein concentration in each sample. Assessment of TAK-994 inhibition potential for the bile salt efflux pump (BSEP) was assessed by incubating [^3H(G)]taurocholic acid with TAK-994 (0 to 100 μM/l) or cyclosporin A after addition of 10 μl of membrane vesicles expressing BSEP or control membrane vesicles. Scintillation counts were assessed in two 5-min cycles.
Membrane vesicles prepared from baculovirus-infected insect cells, expressing human BSEP or controls (Lot Nos. ISAOG29 and IKING23, respectively), were purchased from GenoMembrane Co., Ltd.
The [^3H]TCA reaction mixture (n=42) containing TAK-994 (including 0–100 μM/L TAK-994) or cyclosporin A was pre-incubated at 37°C for 5 minutes. The transport reaction was initiated by addition of 10 μL of membrane vesicles expressing BSEP or control membrane vesicles (0.05 mg protein) to the [^3H]TCA reaction mixture (final [^3H]TCA concentration of 2 μM/L). […] The glass fiber filter was measured for radioactivity using an LSC. […]
The count rates in cpm were corrected to dpm, with the background and counting efficiency assessed using the external standard method described by the manufacturer. […]

patients with narcolepsy [2] = details: in vivo
patients with narcolepsy [3] = system: patients with narcolepsy; design: method as in Dauvilliers et al. 2023; details: 30, 90 or 180 mg twice daily, 8 wk; ref Dauvilliers et al. 2023; cited from earlier work
human liver microtissues = assay: LPS-sensitization assay in liver microtissues; type: cell-based; details: for pIC50: cellular ATP on Day 14
Procedure: Six replicates were tested for each condition. […] Cellular ATP content was measured in the cell lysate on Day 14 of treatment. LDH release was measured on Days 5, 9, and 14 in the cell supernatant and normalized to lysed controls.
(§2) Intracellular ATP content in model lysates was measured with the CellTiter-Glo® 2.0 Cell Viability Assay (Catalogue No. G9243, Promega). The Bioluminescent LDH Release Toxicity Assay Kit (Catalogue No. J2380, Promega) was used to assess extracellular LDH release and normalized to lysed controls. ATP, LDH, GSH, and triglycerides were measured according to internal technical operating procedures.

[4] = system: human liver microtissues + FFA; assay: Hepatotoxicity in steatosis liver model (free fatty acids); type: cell-based; details: 14 days
Procedure: Mono and co-culture model cells were exposed to TAK-994 (0.1, 0.3, 1, 3.16, 10, 31.6, or 100 μM in 0.5% DMSO) for 14 days (TAK-994 administered on Days 0, 5, and 9). The cell culture medium was supplemented with free fatty acids of 100 μM of Oleic acid and 66 μM of Palmitic acid. Six replicates were tested for each condition. The vehicle control was 0.5% DMSO, and the positive control was chlorpromazine (0.1, 0.3, 1, 3.16, 10, 31.6, or 100 μM in DMSO). Cellular ATP content was measured in the cell lysate on Day 14 of treatment. LDH release was measured in the cell supernatant on Days 5, 9, and 14 and normalized to lysed controls. Cellular triglyceride content was measured in the microtissues on Day 14.
as §2

human hepatocytes = assay: Covalent binding of [14C]TAK-994 in human hepatocytes and CVB burden; type: in vitro ADME; details: for Daily CVB burden: most conservative values based on internal assay data (Table 1); for CVB burden: fa and fm assumed 1 (Table 3)
Procedure: as §1
[^14C ]TAK-994 (10 μmol/L, supplied by Takeda Pharmaceutical Company Limited, Japan) was incubated with human hepatocytes (LIVERPOOL® 10-donor mixed gender, pooled, cryopreserved human hepatocytes [Lot No. ZOL, BioIVT]) as suspension culture in 24-well plates at 37°C under 5% CO2, humidified, for 0 or 2 hours. Seeding density of the cells was 3.0 × 10^5 viable cells/500 μL/well. A total of 3 replicates were assessed.
The covalent-binding (CVB) level was determined by relating the total amount of radioactivity (pmol equivalent) to the protein concentration in each sample. To obtain the net covalent-binding (CVBnet), the average result of the “back-added” samples (CVBback) was subtracted from the average result of the incubated samples (CVBinc). For the determination of [^14C ]TAK-994 turnover in the incubation, part of the samples were analyzed by high-performance liquid chromatography with an online flow scintillation analyzer.
Turnover = 1 − [percentage of TAK-994 relative to the total radioactivity at 2 hours] [percentage of TAK-994 relative to the total radioactivity at 0 hour]
fcvb = CVB (pmol/mg protein) × [mean protein concentration (mg/well)] turnover × [substrate concentration (pmol/well)]
CVB burden (mg) = D × fa × fm × fcvb
D was set to 60, 180, 240, and 360 mg. Both fa and fm were set to a value of 1 (Thompson et al. 2012).

Sequence of human BSEP (O95342 whole entry): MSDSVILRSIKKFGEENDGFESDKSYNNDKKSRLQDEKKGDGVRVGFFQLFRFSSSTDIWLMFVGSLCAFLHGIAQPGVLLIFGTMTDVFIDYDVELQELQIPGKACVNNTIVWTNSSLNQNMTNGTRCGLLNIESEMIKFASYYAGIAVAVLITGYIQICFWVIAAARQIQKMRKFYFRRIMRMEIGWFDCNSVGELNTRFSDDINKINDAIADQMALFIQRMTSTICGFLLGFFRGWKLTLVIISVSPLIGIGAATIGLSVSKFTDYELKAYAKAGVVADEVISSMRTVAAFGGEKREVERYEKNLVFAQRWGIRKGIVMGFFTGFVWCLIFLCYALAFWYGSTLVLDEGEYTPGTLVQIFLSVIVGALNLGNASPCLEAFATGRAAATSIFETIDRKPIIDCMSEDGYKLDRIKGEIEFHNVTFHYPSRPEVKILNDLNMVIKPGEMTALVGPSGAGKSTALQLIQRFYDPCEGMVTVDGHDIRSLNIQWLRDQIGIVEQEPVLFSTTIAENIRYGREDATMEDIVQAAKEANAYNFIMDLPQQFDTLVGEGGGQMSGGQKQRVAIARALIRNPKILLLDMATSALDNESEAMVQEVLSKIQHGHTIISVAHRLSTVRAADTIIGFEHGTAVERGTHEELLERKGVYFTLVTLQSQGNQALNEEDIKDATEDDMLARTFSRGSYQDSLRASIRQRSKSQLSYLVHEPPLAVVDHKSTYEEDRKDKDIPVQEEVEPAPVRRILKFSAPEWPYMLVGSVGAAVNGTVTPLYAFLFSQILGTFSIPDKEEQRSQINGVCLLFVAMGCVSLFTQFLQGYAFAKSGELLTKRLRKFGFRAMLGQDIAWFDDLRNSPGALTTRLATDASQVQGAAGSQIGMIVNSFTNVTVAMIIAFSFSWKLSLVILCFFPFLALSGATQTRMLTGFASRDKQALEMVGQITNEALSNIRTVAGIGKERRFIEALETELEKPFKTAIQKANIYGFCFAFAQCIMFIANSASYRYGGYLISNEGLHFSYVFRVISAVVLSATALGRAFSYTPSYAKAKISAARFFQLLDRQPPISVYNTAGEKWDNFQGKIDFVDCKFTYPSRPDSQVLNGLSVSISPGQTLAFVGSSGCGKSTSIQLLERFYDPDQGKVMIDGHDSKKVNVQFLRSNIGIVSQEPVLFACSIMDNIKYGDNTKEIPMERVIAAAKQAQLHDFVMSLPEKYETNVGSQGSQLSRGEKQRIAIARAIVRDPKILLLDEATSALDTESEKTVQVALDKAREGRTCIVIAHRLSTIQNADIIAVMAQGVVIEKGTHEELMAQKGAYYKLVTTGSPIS

CC(C)(O)C(=O)N1CC[C@H](NS(C)(=O)=O)[C@@H]1Cc1cccc(-c2cc(F)cc(F)c2)c1F.CC(C)(O)C(=O)N1CC[C@H](NS(C)(=O)=O)[C@@H]1Cc1cccc(-c2cc(F)cc(F)c2)c1F.O.O.O [TAK-994]
subjects who met discontinuation criteria due to increases in liver transaminases (patients with narcolepsy [1]; 90- and 180-mg BID treatment groups): 8
cases that satisfied Hy's Law criteria, diagnosed as DILI (patients with narcolepsy [1]; 90 and 180 mg dose groups): 3
pIC50 (human BSEP): 4.47
onset of earliest Hy's Law case (patients with narcolepsy [2]): 50 days
mean wakefulness time in people with narcolepsy (patients with narcolepsy [3]): effectively increased mean wakefulness time
sensitization of liver microtissues by LPS (innate immune activation) (human liver microtissues): no direct innate immune-mediated toxicity was observed
pIC50 (human liver microtissues; read-out: IC50, liver microtissues + LPS (Fig. 5A)): < 4.00
pIC50 (human liver microtissues; read-out: IC50, liver microtissues without LPS (Fig. 5A)): < 4.00
sensitization of liver microtissues by free fatty acids [4]: no increased sensitivity
Daily CVB burden (human hepatocytes; 90 mg BID): 25.1 mg
Daily CVB burden (human hepatocytes; 180 mg BID): 50.2 mg
CVB level (human hepatocytes; 2-h incubation of human hepatocytes with TAK-994 at 10 μM): 389.2 pmol equivalent/mg protein
CVB burden (human hepatocytes; daily dose 60 mg (30 BID)): 2.94 mg
CVB burden (human hepatocytes; daily dose 180 mg (90 BID)): 8.82 mg
CVB burden (human hepatocytes; daily dose 240 mg (120 BID)): 11.8 mg
CVB burden (human hepatocytes; daily dose 360 mg (180 BID)): 17.6 mg
f CVB (fraction of metabolism leading to covalent binding) (human hepatocytes; human hepatocytes, 10 μM, 2 h): 0.0490
